Results: ChEMBL document CHEMBL5724914, “Linking interpersonal differences in gut microbiota composition and drug biotransformation activity” (2024)

Tests used:
[1] = (§1) The drug is tested on WLS-240 corresponding to human gut metagenome with ENA study accession number: PRJEB37062 and ENA sample accession number: ERS12561773 for biotransformation under anaerobic condition. The drug concentrations were measured over 9 timepoints collected between 0 and 24 hours of incubation by liquid-chromatography-coupled mass spectrometry (LC–MS); conditions: 2 µM
[2] = as §1, with “Z-026” for “WLS-240”, “to” for “to human gut”, “ERS12561825” for “ERS12561773”; conditions: 2 µM
[3] = human gut metagenome, 24 h, 2 µM
[4] = human gut metagenome, 24 h, 2 µM; remark: listed apart in the source
[5] = as §1, with “WLS-350” for “WLS-240”, “ERS12561789” for “ERS12561773”; conditions: 2 µM
[6] = as §1, with “Z-013” for “WLS-240”, “rabbit” for “human”, “ERS12561813” for “ERS12561773”; conditions: 2 µM
[7] = as §1, with “Z-027” for “WLS-240”, “to” for “to human gut”, “ERS12561826” for “ERS12561773”; conditions: 2 µM
[8] = human gut metagenome, 24 h, 2 µM; remark: listed apart in the source
[9] = as §1, with “Z-003” for “WLS-240”, “pig” for “human”, “ERS12561803” for “ERS12561773”; conditions: 2 µM
[10] = as §1, with “Z-010” for “WLS-240”, “to” for “to human gut”, “ERS12561810” for “ERS12561773”; conditions: 2 µM
[11] = human gut metagenome, 24 h, 2 µM; remark: listed apart in the source
[12] = as §1, with “WLS-220” for “WLS-240”, “ERS12561769” for “ERS12561773”; conditions: 2 µM
[13] = human gut metagenome, 24 h, 2 µM; remark: listed apart in the source
[14] = human gut metagenome, 24 h, 2 µM; remark: listed apart in the source
[15] = as §1, with “Z-020” for “WLS-240”, “rabbit” for “human”, “ERS12561819” for “ERS12561773”; conditions: 2 µM
[16] = as §1, with “Z-004” for “WLS-240”, “to” for “to human gut”, “ERS12561804” for “ERS12561773”; conditions: 2 µM
[17] = as §1, with “WLS-370” for “WLS-240”, “ERS12561793” for “ERS12561773”; conditions: 2 µM
[18] = human gut metagenome, 24 h, 2 µM; remark: listed apart in the source
[19] = human gut metagenome, 24 h, 2 µM; remark: listed apart in the source
[20] = human gut metagenome, 24 h, 2 µM; remark: listed apart in the source

Measured: Bacterial Biotransformation
Note: call rule not given here.

CCOC(=O)C1=C[C@]2(CC)CCCN3CCc4c(n1c1ccccc41)[C@@H]32 [VINPOCETINE]
Compound NOT metabolized: [2] | [4] | [6] | [7] | [12] | [13] | [16] | [18] | [19]
Compound metabolized: all other assays above

C[C@@H](c1ncncc1F)[C@](O)(Cn1cncn1)c1ccc(F)cc1F [VORICONAZOLE]
Compound NOT metabolized: [2] | [6] | [7] | [16]
Compound metabolized: all other assays above

CCN(C(C)=O)c1cccc(-c2ccnc3c(C#N)cnn23)c1 [ZALEPLON]
Compound NOT metabolized: [2] | [6] | [7]
Compound metabolized: all other assays above
